pIC50: −log10 of the molar value. Structures can show the parent of a compound that is named as a salt.
What was measured:
MG-63 = assay: Cytotoxicity against human MG63 cells by MTT assay; type: functional, cell-based
A549 = assay: Cytotoxicity against human A549 cells by MTT assay; type: functional, cell-based

Q: How did the pIC50 (MG-63) turn out when `CC(=O)O[C@@H]1[C@H](O[C@H]2CC[C@@]3(CO)C(=CC[C@@H]4[C@@H]3CC[C@]3(C)[C@@H]([C@H](C)CCCC(C)(C)OC(C)=O)CC[C@@H]43)C2)OC[C@@H](O)[C@H]1O` [JUNCEELLOSIDE G] was run?
A: Its pIC50 is 4.64.

Q: And the pIC50 (A549)?
A: Its pIC50 is 4.86.

Q: With `C=C(CC[C@@H](C)[C@H]1CC[C@H]2[C@@H]3CC=C4C[C@@H](O[C@H]5OC[C@H](O)[C@H](O)[C@H]5O)CC[C@]4(CO)[C@H]3CC[C@]12C)C(C)(C)OC(C)=O` [JUNCEELLOSIDE E] as the compound, how does the pIC50 (MG-63) read?
A: Its pIC50 is less than 4.30.

Q: What about the pIC50 (A549) of the same compound?
A: The pIC50 was less than 4.30.

Q: How did the pIC50 (MG-63) turn out when `CC(=O)OC(C)(C)CCC[C@@H](C)[C@H]1CC[C@H]2[C@@H]3CC=C4C[C@@H](O[C@H]5OC[C@H](O)[C@H](O)[C@H]5O)CC[C@]4(CO)[C@H]3CC[C@]12C` [JUNCEELLOSIDE C] was run?
A: Its pIC50 is 4.76.

Q: And the pIC50 (A549)?
A: Its pIC50 is 4.94.

Q: How did the pIC50 (MG-63) turn out when `CC(=O)OC(C)(C)C/C=C/[C@@H](C)[C@H]1CC[C@H]2[C@@H]3CC=C4C[C@@H](O[C@@H]5OC[C@@H](O)[C@@H](O)[C@@H]5O)CC[C@]4(CO)[C@H]3CC[C@]12C` [JUNCEELLOSIDE F] was run?
A: The pIC50 was 4.64.

Q: And the pIC50 (A549)?
A: The pIC50 was less than 4.30.

Q: With `COc1cccc2c1C(=O)c1c(O)c3c(c(O)c1C2=O)C[C@@](O)(C(=O)CO)C[C@@H]3O[C@H]1C[C@H](N)[C@H](O)[C@H](C)O1` [DOXORUBICIN HYDROCHLORIDE] as the compound, how does the pIC50 (MG-63) read?
A: Its pIC50 is 5.47.

Source: ChEMBL document CHEMBL2331208, “Steroids glycosylated with both D- and L-arabinoses from the South China Sea gorgonian Dichotella gemmacea” (J Nat Prod, 2013)
